{"source": "patent US8993626B2", "about": "“Methods of treatment using sterculic acid” (The United States of America, as represented by the …, priority 2010, dated 2015)", "key": {"[1]": {"test_system": "ARPE-19 cells", "assay": "qRT-PCR of inflammatory cytokines and ER stress markers, 7KCh-mediated inflammation", "assay_type": "cell-based", "procedure": "FIGS. 13A-13D depict mRNA expressions of (A) VEGF, (B) IL-6, (C) GRP78, and (D) CHOP in response to 8 μM 7KCh with or without 1 μM long-chain fatty acids. Error bars indicate the standard deviations. *p<0.05 comparing to 7KCh, n=3. Two-tailed Student's t-test.\n(§1) FIGS. 14A-14D depict mRNA expressions of (A) VEGF, (B) IL-1b, (C) IL-6, and (D) IL-8 in response to 8 μM 7KCh, 1 μM sterculic acid, 1 μM stearic acid, or the combinations of 7KCh with either sterculic acid or stearic acid. Error bars indicate the standard deviations. *p<0.05 comparing to 7KCh, n=4. Two-tailed Student's t-test.\nas §1, with “15A-15D” for “14A-14D”, “TNF-α,” for “VEGF,”, “TGF-β1,” for “IL-1b,”, “GRP78,” for “IL-6,”, “CHOP” for “IL-8”, “n=3-4.” for “n=4.”\n(§2) ARPE-19 cells were seeded in 24-well plates with 1×10^5 cells per well and allowed to recover for 16-24 hr. Once confluency reached approximately 90%, the effect of the fatty acids against 7KCh-mediated cell death was examined 24 hr after incubation in serum-free medium with 12 μM 7KCh. Fatty acids were tested at 0.1, 0.5, 1, 5 and 10 μM concentrations. The effects of the fatty acids against 7KCh-mediated inflammation and ER stress were examined by incubating cells in 1 μM fatty acids with either 8 μM 7KCh (24 hr for quantitative real-time PCR (qRT-PCR), 24 and 48 hr for immunoblot), or 6 μM 7KCh for 48 hr (for ELISA). Three individual experiments were performed for each treatment with quadruplicate measurements performed for each experiment in 24-well plates.\nThe RNA was extracted using RNeasy Mini Kit (Qiagen, Valencia, Calif.). The reverse transcription was performed with reagents and kits from Invitrogen. Quantification of mRNA expression was performed using the Taqman gene expression assays and the following primers (VEGFa, Hs00173626_m1; IL-1β, Hs01555413_m1; IL-6, Hs00174131_m1; IL-8, Hs00174103_m1; IκBα, Hs00153283_m1; GRP78, Hs99999174_m1; CHOP, Hs01090850_m1; NOX2, Hs00166163_m1; NOX4, Hs01558199_m1; SCD, Hs00748952 s1; TNF-α, Hs00174128_m1; TGF-β1, Hs00998133_m1; GAPD, 4352934e). GAPD expression was used as an endogenous standard. All qRT-PCR experiments were measured in triplicates in an ABI 7500 Real-Time PCR Instrument (Applied Biosystems, Foster City, Calif.). The results of each treatment were normalized and presented in percentage relative to the vehicle-only control."}, "[2]": {"test_system": "Leukemia, SR-91", "assay": "NCI in vitro anti-cancer cell line screen (SRB)", "conditions": "Homo sapiens, 48 h", "method": "(§4) The human tumor cell lines used in the cancer screen panel were grown in RPMI 1640 medium containing 5% FBS and 2 mM L-glutamine. The cells were inoculated into 96-well microtiter plates in 100 μl at plating density ranging from 5000 to 40,000 cell/well. […] Following drug addition, the plates were incubated for an additional 48 h. The assay was terminated by the addition of cold 10% TCA. The supernatant was discarded, and the plates were washed five times with water and air dried. Sulforhodamine B (SRB) solution (100 μl) at 0.4% (w/v) in 1% acetic acid was added to each well, and plates were incubated for 10 min at room temperature. After staining, unbound dye was removed by washing five times with 1% acetic acid and the plates were air dried. Bound stain was subsequently solubilized with 10 mM trizma base, and the absorbance was read on an automated plate reader at a wavelength of 515 nm.\n(§5) A sulforhodamine B (SRB) end point was used to calculate the median growth inhibition (GI50). GI50 refers to the concentration at which the drug inhibits tumor cell growth by 50%."}, "[3]": {"test_system": "Breast Cancer, NCI/ADR-RES", "assay": "NCI in vitro anti-cancer cell line screen (SRB)", "conditions": "Homo sapiens, 48 h", "method": "as §4, §5"}, "[4]": {"test_system": "ARPE-19 cells", "assay": "ELISA of secreted VEGF, IL-6, IL-8 in conditioned medium", "assay_type": "cell-based", "conditions": "6 μM 7KCh alone or with 1 μM fatty acid, 48 hr", "procedure": "(§3) FIGS. 16A-16E depict the secreted protein levels of (A) VEGF, (B) IL-6, and (C) IL-8 were measure by ELISA 48 hr after treatment with 6 μM 7KCh, 1 μM sterculic acid, 1 μM stearic acid, or the combinations of 7KCh with either sterculic acid or stearic acid. Error bars indicate the standard deviations. *p<0.05 comparing to 7KCh, n=3. Two-tailed Student's t-test. The expressions of GRP78 and CHOP were shown by immunoblots (D) 24 hr or (E) 48 hr after treatment with 8 μM 7KCh, 1 μM sterculic acid, 1 μM stearic acid, or the combinations of 7KCh with either sterculic acid or stearic acid.\nas §2\nThe levels of secreted VEGF, IL-6, IL-8, and TNF-α in conditioned medium of ARPE-19 cell cultures were measured 48 hr after treatments of 6 μM 7KCh and 1 μM fatty acids using the Quantkine ELISA kits from R&D systems (Minneapolis, Minn.). The protein levels were measured in triplicates. The ELISA results were quantified using an Envision multilable plate reader (PerkinElmer, Covina, Calif.) and presented in percentage relative to the vehicle-only control."}, "[5]": {"test_system": "Melanoma, UACC-62", "assay": "NCI in vitro anti-cancer cell line screen (SRB)", "conditions": "Homo sapiens, UACC-62, 48 h", "method": "as §4, §5"}, "[6]": {"test_system": "ARPE19 cells", "assay": "7-ketocholesterol-mediated cytotoxicity, 24-well CCK-8 viability and images", "conditions": "24 hr"}, "[7]": {"test_system": "ARPE-19 cells", "assay": "Immunoblots of CHOP and GRP78", "assay_type": "cell-based", "conditions": "1 μM + 8 μM 7KCh", "procedure": "as §3, §2\nLysis of ARPE-19 cells was performed using MPER buffer solution (Thermo Fisher Scientific) containing Complete Protease Inhibitor Cocktail (Roche Diagnostics). A total of 10 μg protein samples of the cell lysate were separated by SDS-PAGE on 10% Bis-Tris gels (Invitrogen). The gels were blotted on to nitrocellulose membranes (Invitrogen). The proteins were probed with primary antibodies for CHOP (1:1000 dilution), GRP78 (1:1000), or GAPDH (1:2000) at 4° C. overnight. The membranes were then further incubated with anti-rabbit IgG, HRP-linked antibodies (1:2000 dilution) at room temperature for 1 hr. […]"}, "[8]": {"test_system": "HUVEC", "assay": "Cord formation assay on Matrigel", "assay_type": "cell-based", "conditions": "data not shown"}}, "note": "“Also recorded” adds a separate entry of the source.", "data": [{"smiles": "CCCCCCCCC1=C(CCCCCCCC(=O)O)C1", "note": "[sterculic acid, 8-(2-octacyclopropen-1-yl)octanoic acid]", "values": [{"measurement": "effect on 7KCh-mediated mRNA induction (inflammatory response)", "setting": "[1]; 1 μM fatty acid + 8 μM 7KCh, 24 hr, FIG. 13", "result": "complete inhibition"}, {"measurement": "effect of fatty acid alone on the mRNA expression of the cytokines", "setting": "[1]; 1 μM fatty acid alone, no 7KCh, FIGS. 14, 15", "result": "no effect"}, {"measurement": "VEGF mRNA expression", "setting": "[1]; 8 μM 7KCh alone or with 1 μM fatty acid, 24 hr, FIG. 13A", "result": "basal levels"}, {"measurement": "IL-6 mRNA expression", "setting": "[1]; 8 μM 7KCh alone or with 1 μM fatty acid, 24 hr, FIG. 13B", "result": "basal levels"}, {"measurement": "GRP78 mRNA expression", "setting": "[1]; 8 μM 7KCh alone or with 1 μM fatty acid, 24 hr, FIG. 13C", "result": "basal levels"}, {"measurement": "CHOP mRNA expression", "setting": "[1]; 8 μM 7KCh alone or with 1 μM fatty acid, 24 hr, FIG. 13D", "result": "basal levels"}, {"measurement": "induction of VEGF mRNA", "setting": "[1]; 8 μM 7KCh alone or with 1 μM fatty acid, FIG. 14A", "result": 2.5, "unit": "fold"}, {"measurement": "induction of IL-1β mRNA", "setting": "[1]; 8 μM 7KCh alone or with 1 μM fatty acid, FIG. 14B", "result": 3.9, "unit": "fold"}, {"measurement": "induction of IL-6 mRNA", "setting": "[1]; 8 μM 7KCh alone or with 1 μM fatty acid, FIG. 14C", "result": 5.1, "unit": "fold"}, {"measurement": "induction of IL-8 mRNA", "setting": "[1]; 8 μM 7KCh alone or with 1 μM fatty acid, FIG. 14D", "result": 1.8, "unit": "fold"}, {"measurement": "induction of TNF-α mRNA", "setting": "[1]; 8 μM 7KCh alone or with 1 μM fatty acid, FIG. 15A", "result": 1.5, "unit": "fold"}, {"measurement": "induction of TGF-β1 mRNA", "setting": "[1]; 8 μM 7KCh alone or with 1 μM fatty acid, FIG. 15B", "result": 1, "unit": "fold"}, {"measurement": "induction of GRP78 mRNA", "setting": "[1]; 8 μM 7KCh alone or with 1 μM fatty acid, FIG. 15C", "result": 1.3, "unit": "fold"}, {"measurement": "induction of CHOP mRNA", "setting": "[1]; 8 μM 7KCh alone or with 1 μM fatty acid, FIG. 15D", "result": 4.1, "unit": "fold"}, {"measurement": "GI50", "setting": "[2]", "result": 10, "unit": "µM"}, {"measurement": "GI50", "setting": "[3]", "result": 10, "unit": "µM"}, {"measurement": "secreted IL-6 protein expression", "setting": "[4]", "result": 1.4, "unit": "fold"}, {"measurement": "secreted IL-8 protein expression", "setting": "[4]", "result": 1.1, "unit": "fold"}, {"measurement": "secreted VEGF protein expression", "setting": "[4]", "result": 1.1, "unit": "fold"}, {"measurement": "GI50", "setting": "[5]", "result": 1, "unit": "µM"}, {"measurement": "protection of cell confluency and morphology (images)", "setting": "[6]; 0.5 μM co-treatment with 12 μM 7KCh", "result": "maintain both cell confluency and cell morphology similar to the control; also recorded: apparent protection"}, {"measurement": "protection of cell confluency and morphology (images)", "setting": "[6]; 1 μM co-treatment with 12 μM 7KCh", "result": "maintain both cell confluency and cell morphology similar to the control; also recorded: apparent protection"}, {"measurement": "co-treatment concentration that completely offsets the 7KCh cytotoxic effect", "setting": "[6]; 12 μM 7KCh, CCK-8", "result": 1, "unit": "µM"}, {"measurement": "concentration at which apparent protection is seen", "setting": "[6]; 12 μM 7KCh, CCK-8", "result": 0.5, "unit": "µM"}, {"measurement": "effect on 7KCh-induced CHOP and GRP78 protein expression", "setting": "[7]; 24 hr", "result": "completely inhibited"}, {"measurement": "inhibitory effect on CHOP and GRP78 protein expression", "setting": "[7]; after 48 hr", "result": "seems to decrease"}, {"measurement": "viability of HUVEC at concentrations required to inhibit cord formation", "setting": "[8]", "result": "did not affect their viability"}]}]}
